{"source": "patent US8877755B2", "about": "“Dopamine-agonist combination therapy for improving sleep quality” (priority 2004, dated 2014)", "origin": "cited, not measured here", "key": {"[1]": {"conditions": "in vivo"}, "[2]": {"conditions": "in vivo", "remark": "listed apart in the source"}, "[3]": {"experiment": "not given", "remark": "listed apart in the source"}, "[4]": {"conditions": "L-dopa 100 mg with carbidopa 10 mg, in most cases"}, "[5]": {"conditions": "following oral administration"}, "[6]": {"conditions": "primates, multiple doses for up to four days"}, "[7]": {"experiment": "not given", "remark": "listed apart in the source"}, "[8]": {"conditions": "mice; behavioral depression score <40"}, "[9]": {"target": "GABA:2-oxo-glutarate aminotransferase (Homo sapiens, UniProt P80404)", "sequence (P80404 29-500)": "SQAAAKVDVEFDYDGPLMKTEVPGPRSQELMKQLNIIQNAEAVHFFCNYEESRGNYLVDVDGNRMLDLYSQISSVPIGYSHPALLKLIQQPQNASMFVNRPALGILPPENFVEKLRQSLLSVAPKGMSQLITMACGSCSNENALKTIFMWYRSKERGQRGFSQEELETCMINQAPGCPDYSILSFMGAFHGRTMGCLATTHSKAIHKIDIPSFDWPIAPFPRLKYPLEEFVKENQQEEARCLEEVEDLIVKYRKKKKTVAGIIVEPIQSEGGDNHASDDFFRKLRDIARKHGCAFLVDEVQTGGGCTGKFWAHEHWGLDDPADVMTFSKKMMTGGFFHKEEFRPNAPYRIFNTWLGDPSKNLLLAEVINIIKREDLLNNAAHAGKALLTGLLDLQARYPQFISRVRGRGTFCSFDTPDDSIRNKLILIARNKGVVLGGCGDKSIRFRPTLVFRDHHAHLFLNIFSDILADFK", "conditions": "at 10^−3 M"}, "GABA uptake system": {"tested_on": "GABA uptake system", "parameters": "dose or concentration left out as unconfirmed"}, "[10]": {"tested_on": "L-glutamate 1-carboxylase", "conditions": "at 10^−3 M"}, "[11]": {"experiment": "not given", "remark": "listed apart in the source"}, "[12]": {"conditions": "in vivo", "remark": "listed apart in the source"}}, "note": "Where a name gives a salt, the structure may show the parent alone. Read-outs that look alike come from different tables or passages of the source."}
{"molecule": "Oc1ccc(C2CNCCc3c2cc(O)c(O)c3Cl)cc1", "note": "(racemic) [racemic fenoldopam, 6-chloro-2,3,4,5-tetrahydro-1-(4-hydroxyphenyl)-1H-3-benzazepine-7,8-diol]", "values": [{"measurement": "average clearance (CL)", "setting": "[1]", "result": 2.6, "unit": "L/min"}, {"measurement": "half-life (t1/2)", "setting": "[1]", "result": 4.6, "unit": "min"}]}
{"molecule": "C=CCN1C[C@H](C(=O)N(CCCN(C)C)C(=O)NCC)C[C@@H]2c3cccc4[nH]cc(c34)C[C@H]21", "note": "[Cabergoline, 1-[(6-allylergolin-8β-yl)-carbonyl]-1-[3-(dimethylamino)propyl]-3-ethylurea]", "values": [{"measurement": "half life", "setting": "[2]", "result": "≤ 65", "unit": "h"}]}
{"molecule": "CC(=O)N(C)c1cccc(-c2ccnc3c(C(=O)c4cccs4)cnn23)c1", "note": "[Indiplon, N-methyl-N-(3-{3-[2-thienylcarbonyl]-pyrazolo-[1,5-a]-pyrimidin-7-yl}-phenyl)acetamide]", "values": [{"measurement": "resulting pH of water solution", "setting": "at 20-30 μg/ml in water", "result": "approximately 8.0"}, {"measurement": "half-life in vivo", "setting": "[3]", "result": "approximately 1.3 hours"}]}
{"molecule": "N[C@@H](Cc1ccc(O)c(O)c1)C(=O)O", "note": "[L-dopa]", "values": [{"measurement": "effect on RLS", "setting": "[4]", "result": "completely suppresses RLS"}]}
{"molecule": "CCN(C(C)=O)c1cccc(-c2ccnc3c(C#N)cnn23)c1", "note": "[Zaleplon, N-[3-(3-cyanopyrazolo[1,5-a]pyrimidin-7-yl)phenyl]-N-ethylacetamide]", "values": [{"measurement": "time to peak plasma concentration", "setting": "[5]", "result": 1, "unit": "h"}]}
{"molecule": "CN1CCc2cccc3c2[C@H]1Cc1ccc(O)c(O)c1-3", "note": "[apomorphine HCl]", "values": [{"measurement": "doses without major adverse effects", "setting": "[6]", "result": "0.1 to 0.4", "unit": "mg/kg"}, {"measurement": "tolerated dose", "setting": "[7]; single bolus subcutaneous injection, mammals", "result": "up to 13 mg/kg"}]}
{"molecule": "CN1CCc2cccc3c2[C@H]1Cc1ccc(O)c(O)c1-3", "note": "[apomorphine, (R)-5,6,6a,7-tetrahydro-6-methyl-4H-dibenzo-[de,g]quinoline-10,11-diol]", "values": [{"measurement": "tolerated dose, continuous infusion", "setting": "[7]; continuous infusion for 14 days", "result": 420, "unit": "µg/kg/h"}, {"measurement": "minimally lethal dose, continuous infusion", "setting": "[7]; over the course of the 14 day study", "result": "1,500 μg/kg/hr"}]}
{"molecule": "CN1C(=O)CN=C(c2ccccc2)c2cc(Cl)ccc21", "note": "[diazepam]", "values": [{"measurement": "ED100", "setting": "[8]", "result": 50, "unit": "mg/kg"}]}
{"molecule": "Oc1noc2c1CCNC2", "note": "[gaboxadol, 4,5,6,7-tetrahydroisoxazolo[5,4-c]pyridin-3-ol]", "values": [{"measurement": "interaction with GABA:2-oxo-glutarate aminotransferase", "setting": "[9]", "result": "did not interact"}, {"measurement": "interaction with GABA uptake system", "setting": "GABA uptake system", "result": "did not interact"}, {"measurement": "interaction with L-glutamate 1-carboxylase", "setting": "[10]", "result": "did not interact"}]}
{"molecule": "CCC1(c2ccccc2)CCC(=O)NC1=O", "note": "(centres unmarked) [glutethimide]", "values": [{"measurement": "ED100", "setting": "[8]", "result": 300, "unit": "mg/kg"}]}
{"molecule": "O=C(CCCN1CCC(O)(c2ccc(Cl)cc2)CC1)c1ccc(F)cc1", "note": "[haloperidol]", "values": [{"measurement": "ED100", "setting": "[8]", "result": 10, "unit": "mg/kg"}]}
{"molecule": "CCCC(C)(COC(N)=O)COC(N)=O", "note": "[meprobamate]", "values": [{"measurement": "ED100", "setting": "[8]", "result": 300, "unit": "mg/kg"}]}
{"molecule": "CN1C[C@@H](NS(=O)(=O)N(C)C)C[C@@H]2c3cccc4c3c(cn4C)C[C@H]21", "note": "[mesulergine, N′-(1,6-dimethylergolin-8α-yl)-N,N-dimethylsulfamide]", "values": [{"measurement": "solubility in water", "setting": "hydrochloride salt", "result": "soluble in water"}, {"measurement": "half-life in vivo", "setting": "[11]", "result": "approximately 2 hr"}]}
{"molecule": "CCCC(C)C1(CC)C(=O)NC(=O)NC1=O", "note": "(centres unmarked) [pentobarbital]", "values": [{"measurement": "ED100", "setting": "[8]", "result": 100, "unit": "mg/kg"}]}
{"molecule": "COC(=O)[C@H]1[C@H]2C[C@@H]3c4[nH]c5cc(OC)ccc5c4CCN3C[C@H]2C[C@@H](OC(=O)c2cc(OC)c(OC)c(OC)c2)[C@@H]1OC", "note": "[reserpine]", "values": [{"measurement": "ED100", "setting": "[8]", "result": 50, "unit": "mg/kg"}]}
{"molecule": "Cc1ccc(-c2nc3ccc(C)cn3c2CC(=O)N(C)C)cc1", "note": "[zolpidem, N,N,6-trimethyl-2-(4-methylphenyl)-imidazo[1,2-s]pyridine-3-acetamide]", "values": [{"measurement": "elimination half-life (mean)", "setting": "[12]", "result": 2.4, "unit": "h"}]}
